Source: patent US20070060550A1, “Methods of determining compounds useful in the treatment of bipolar disorder and methods of treating such disorders” (priority 2005, published 2007)
pKi: −log10 of the molar value.

Legend:
[1] = tested on: sensory neuron growth cones; conditions: Williams et al., 2002; cited from earlier work
prolyl oligopeptidase = molecular target: T1, prolyl oligopeptidase (Homo sapiens, UniProt P48147); assay: prolyl oligopeptidase fluorogenic enzyme assay (Z-Gly-Pro-aminomethyl coumarin); format: biochemical; conditions: for effect on prolyl oligopeptidase proteolytic activity: FIG. 9
T1 construct: poly-histidine; made in house; host or cells: E. coli
T1 sequence (P48147 1-710): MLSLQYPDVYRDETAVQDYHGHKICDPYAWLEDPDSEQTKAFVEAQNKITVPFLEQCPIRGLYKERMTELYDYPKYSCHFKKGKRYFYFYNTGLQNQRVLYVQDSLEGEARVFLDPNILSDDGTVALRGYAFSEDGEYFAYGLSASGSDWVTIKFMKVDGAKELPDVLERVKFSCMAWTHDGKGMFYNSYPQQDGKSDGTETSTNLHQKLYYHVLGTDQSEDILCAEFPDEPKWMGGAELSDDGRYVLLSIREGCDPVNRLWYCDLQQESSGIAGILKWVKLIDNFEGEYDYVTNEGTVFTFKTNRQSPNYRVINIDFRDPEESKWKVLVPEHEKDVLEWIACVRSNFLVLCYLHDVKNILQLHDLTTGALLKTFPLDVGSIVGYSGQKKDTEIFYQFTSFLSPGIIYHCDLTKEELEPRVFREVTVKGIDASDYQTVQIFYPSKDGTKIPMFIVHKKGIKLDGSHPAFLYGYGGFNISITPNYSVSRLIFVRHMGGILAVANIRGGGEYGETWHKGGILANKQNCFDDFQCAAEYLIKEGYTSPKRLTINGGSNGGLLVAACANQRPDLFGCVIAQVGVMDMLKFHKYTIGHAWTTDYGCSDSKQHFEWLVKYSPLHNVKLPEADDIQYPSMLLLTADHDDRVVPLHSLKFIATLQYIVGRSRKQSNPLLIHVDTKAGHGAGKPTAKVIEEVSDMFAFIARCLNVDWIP
Excerpt: For inhibitors of the enzymatic activity on the enzyme prolyl oligopeptidase, the relevant references for several assays can be found in Cheng et al., MCN 2005. Common assays use a peptide-based substrate which, when cleaved from a prorlyl bond, releases a fluorogenic signal that can be quantitated by spectrocopy.
Conveniently, the effect of the candidate compounds that inhibit enzyme activity can be assessed using a labeled substrate that is cleaved or otherwise modified by prolyl oligopeptidase to produce a detachable change such as release of a label. Thus, it is possible to screen candidate inhibitors by measuring the change in the signal from the label caused by the action of prolyl oligopeptidase in the presence and absence of a candidate inhibitor compound. A preferred substrate may be one in which a fluorescent label is employed, such as Z-Gly-Pro-aminomethyl coumarin.
Conveniently, prolyl oligopeptidase enzyme assays can be carried out using a standard fluorogenic assay with the synthetic substrate Z-Gly-Pro-aminomethyl coumarin obtained from Bachem, Switzerland. Recominant prolyl oligopeptidase was produced in E. coli transfected with cDNA encoding the human form of prolyl oligopeptidase cloned into a bacterial expression vector containing either an N-or a C-terminal poly-histidine tag in order to purify the expressed protein. cDNA encoding human […] can be obtained from the MRC's HGMP Resource Center, Hinxton Hall Cambridge, UK (Clone Image No. 3614248).

cortical neurons = assay: 3H-CDP-DAG accumulation assay of PIns recycling in carbachol-stimulated neurons; format: cell-based
Excerpt: PIns recycling that is limited by the supply of inositol can be assessed by loading cells with ^3H-cytidine, stimulating the cells with carbachol in the presence or absence of lithium, precipitating protein with trichloracetic acid, and then determining how much ^3H accumulates as ^3H-CDP-DAG in the lipid membrane compartment, which can be extracted with chloroform. […] Compounds specifically for this purpose may be designed by a number of computer programs suitable for this purpose.
A suitable screen therefore will determine compounds that can reverse the effect of lithium as measured by the accumulation of CDP-DAG in carbachol-stimulated neurons. Another means of screening for drugs that reverse the effect of lithium on PIns recycling is to screen for drugs that alter the supply of intracellular inositol in neurons by labelling them with titriated inositol and analysing the patterns of cytosolic inositol phosphates and membrane phoshoinositides: the novelty of this approach is to use cortical neurons rather than non-neural cells or neural cell lines. […] Additional known tricyclics such as protriptyline that could also be tested. […] The same assays can be used to test for other compounds that stimulate PIns cycling including other inhibitors of prolyl oligopeptidase activity.
The accumulation of tritiated CDP-DAG in the membrane fraction after loading cells with ^3H-cytidine or the incorporation of ^32P orthophosphate into membrane phospholipids can be used to assess changes in synthetic patterns in the presence or absence of compounds needing to be tested.

[2] = tested on: sensory neuron growth cones; assay: growth cone collapse / morphology in cultured neurons; format: cell-based
Excerpt: I used the growth cones as a model system for assessing changes in intracellular signalling events in response to drugs: The growth cones have some properties in common with presynaptic nerve terminals in the brain. I argued that, if the signalling changes we see in the growth cones of cultured neurons also occur in mature brain synapses in mood-related circuits, then these changes in neuronal signalling in response to the drugs would very likely affect synaptic transmission and thus also affect mood.
Another method of screening for suitable drugs for the prophylactic treatment of bipolar disorder is to look for compounds that have dual effects on the morphology of growth cones. Suitable compounds are those that can inhibit the collapse of growth cones in a way that is reversed by increasing extracellular inositol to 3 mM as well as reverse the effects of 20 μM carbamazepine or 3 mM valproic acid on the collapse of growth cones. Lamotrigine has such properties.

HMIT = conditions: compared with SMIT; cited from earlier work
[3] = in vivo; cited from earlier work

## NC(=O)N1c2ccccc2C=Cc2ccccc21 [carbamazepine]
[1]
  effect on collapse of sensory neuron growth cones and growth cone area: inhibit the collapse of sensory neuron growth cones and increase growth cone area
Prolyl oligopeptidase
  effect on prolyl oligopeptidase proteolytic activity: Only valproic acid inhibited the enzyme

## CNCCCN1c2ccccc2CCc2ccccc21 [desipramine]
Cortical neurons
  concentrations at which the antidepressants act on the PIns cycle: micromolar
Prolyl oligopeptidase
  effect on prolyl oligopeptidase proteolytic activity: Only valproic acid inhibited the enzyme

## CNCCC(Oc1ccc(C(F)(F)F)cc1)c1ccccc1 (stereo not drawn) [fluoxetine]
Cortical neurons
  concentrations at which the antidepressants act on the PIns cycle: micromolar
Cortical neurons; cycle first perturbed with lithium, valproic acid or carbamazepine
  reversal of the inhibitory effects of mood stabilizers on the PIns cycle: can reverse the inhibitory effects of lithium, valproic acid and carbamazepine on the PIns cycle
Prolyl oligopeptidase
  effect on prolyl oligopeptidase proteolytic activity: Only valproic acid inhibited the enzyme

## Nc1nnc(-c2cccc(Cl)c2Cl)c(N)n1 [lamotrigine]
[2]; 20 μM carbamazepine or 3 mM valproic acid
  reversal of the action of carbamazepine or valproic acid on the growth cones: can reverse the action of either carbamazepine or valproic acid on the growth cones
[2]; compound alone
  effect on collapse of growth cones: inhibits the collapse of growth cones
[2]; increased extracellular inositol (3 mM)
  reversal of the growth cone effect by inositol: reversed by increasing the extracellular concentration of inositol

## O=C(CCc1ccc(O)cc1)c1c(O)cc(O)cc1O [phloretin]
HMIT
  strength of HMIT inhibition: weak inhibitors of HMIT

## CN1c2ccccc2C(NCCCCCCC(=O)O)c2ccc(Cl)cc2S1(=O)=O (stereo not drawn) [tianeptine]
Cortical neurons; abolition of lithium-induced accumulation, carbachol-stimulated neurons
  effective doses in the 3H-CDP-DAG assay: 10^−6-10^−5 M
Cortical neurons; carbachol-stimulated neurons, in presence of lithium
  effect on lithium-induced accumulation of 3H-CDP-DAG: abolished the lithium-induced accumulation
Cortical neurons; compound alone
  effect alone in the 3H-CDP-DAG assay: no effect alone

## CCCC(CCC)C(=O)O [valproic acid]
[3]
  therapeutic blood levels: 0.3 to 0.7 mM
[1]
  effect on collapse of sensory neuron growth cones and growth cone area: inhibit the collapse of sensory neuron growth cones and increase growth cone area
Prolyl oligopeptidase
  effect on prolyl oligopeptidase proteolytic activity: inhibited the enzyme
Prolyl oligopeptidase; read-out: Ki for direct inhibition of PO
  pKi: ~3.00
